Read-outs that look alike come from different tables or passages of the source.

Assay [1] concerns the target T1, SXA (Selenomonas ruminantium, UniProt O52575). The conditions noted are these: 100 mM sodium phosphate, pH 7.0, 25° C., not well determined.
The target of assay [2] is β-D-xylosidase/α-L-arabinofuranosidase (Selenomonas ruminantium, UniProt O52575). The assay can be described thus: Inhibition of the enzyme by monosaccharides and ethanol (detailed description). In kind it is biochemical, Selenomonas ruminantium GA192.
For assay [3], the target named is T1, SXA. The assay can be described thus: biochemical. The conditions noted are these: inhibition of SXA-catalyzed hydrolysis of 4NPX, I=0.3 M, competitive. As for the experimental part:
Reactions were monitored continuously for 0.3 min at 400 nm to determine initial rates. Initial-rate data were fitted to equation 6, where v is the initial rate, kcat is the rate of the reaction when saturated with substrate, S is the substrate concentration, Km is the Michaelis constant, I is the inhibitor concentration (e.g., D-glucose), and Ki is the dissociation constant of inhibitor from the enzyme-inhibitor complex.

The target of assay [4] is T1, SXA. The assay can be described thus: pH stability of SXA and protection from low pH inactivation at pH 4.0 by monosaccharides. The conditions noted are these: pH 4.0, 25° C.
In assay [5] the target is T1, SXA. The conditions noted are these: pH 5.3, 55° C.; for KI (inactivation): read-out: Ki, dissociation constant from protection against thermal inactivation, kobs fitted to equation 4. As for the experimental part:
Initial rates were determined by monitoring reactions continuously at 400 nM for 0.3 min. […] Relative activity remaining data were fitted to equation 3, which describes a first order decay: A is the relative activity remaining at varied times of preincubation, A0 is the relative activity remaining at time zero of the preincubation, kobs is the first order rate constant, and t is the time of preincubation. Apparent affinities for D-xylose and D-glucose were determined by fitting kobs values from the monosaccharide protection studies to equation 4 where kobs is the observed first order rate constant for the decay, k0 is the first order rate constant in the absence of ligand (e.g., D-xylose), I is the ligand concentration in the preincubation mixture, and Ki is the dissociation constant of ligand from the enzyme-ligand complex.
Ligand protection studies contained varied concentrations of D-xylose or D-glucose in the pH 5.3 preincubation buffer at 55° C.

Assay [6] deals with T1, SXA. Briefly: biochemical. The conditions noted are these: Ki^D-xylose, inhibition of SXA-catalyzed hydrolysis of 4NPA.
Assay [7] addresses T1, SXA. The assay can be described thus: biochemical. The conditions noted are these: pH 5.3, 25° C.
Assay [8] addresses T1, SXA. Briefly: SXA-catalyzed hydrolysis of 4NP-glycoside substrates, initial rates (Methods A and B).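 Note: initial rates from 4-nitrophenol release, tracked by absorbance over roughly 0.3 min and converted using product-minus-substrate extinction differences, in 1 mL mixtures started by enzyme addition.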 In kind it is biochemical. The conditions noted are these: read-out: Ki(xylose).

The term Km denotes the substrate concentration at which the rate is half of its maximum. `O=[N+]([O-])c1ccc(O[C@@H]2OC[C@@H](O[C@@H]3OC[C@@H](O)[C@H](O)[C@H]3O)[C@H](O)[C@H]2O)cc1` [4NPX2, 4-Nitrophenyl-β-D-xylobioside]: the “kcat (4NPX2 to 4NPX + D-xylose)” value at SXA [1] is 50.5 ± 25.7 s⁻¹. In addition, the Km at SXA [1] (read-out: Km (4NPX2 to 4NPX + D-xylose)) is 690 ± 430 µM.
Broadly, the Ki is the dissociation constant of the complex between target and ligand, obtained from inhibition or displacement. `O=C[C@H](O)[C@@H](O)[C@H](O)[C@H](O)CO` [D-glucose]: the Ki came out at 27 ± 0.4 mM in assay [2]; 79 ± 2.3 mM at SXA [3] (pH 5.3, 25° C.); 34.5 ± 0.7 mM on SXA [3] (pH 7.0, 25° C.); 18.7 ± 0.6 mM on SXA [3] (pH 9.0, 25° C.). Further, the “kobs of SXA inactivation in presence of monosaccharide” value (from here on “kobs of SXA inactivation”) on SXA [4] (234 mM) came out at 0.0210 ± 0.0016 min⁻¹; at SXA [4] (467 mM) it was 0.0124 ± 0.0007 min⁻¹; at SXA [5] (93.5 mM) it was 0.00949 ± 0.00069 min⁻¹; on SXA [5] (187 mM), 0.00588 ± 0.00077 min⁻¹; at SXA [5] (280 mM) it was 0.00445 ± 0.00081 min⁻¹; on SXA [5] (374 mM), 0.00336 ± 0.00095 min⁻¹. Also, the KI (inactivation) on SXA [5] amounted to 56.1 ± 0.8 mM.
In the case of `O=C[C@H](O)[C@@H](O)[C@H](O)CO` [D-xylose], the Ki in assay [2] (read-out: Ki) is 4.2 ± 0.1 mM; at SXA [3] (pH 4.3, 25° C.) it was 43.5 ± 1.1 mM; on SXA [3] (pH 5.3, 25° C.), 7.62 ± 0.26 mM; on SXA [3] (pH 7.0, 25° C.) it was 3.82 ± 0.06 mM; at SXA [3] (pH 9.0, 25° C.), 3.21 ± 0.14 mM; on SXA [6] (D-xylose α:β 1:2.5, pH 7.0 (100 mM sodium phosphate, I=0.3 M), 25° C.), 5.15 ± 0.08 mM. For the same molecule, the Ki at SXA [6] (D-xylose α:β 6:1, pH 7.0 (100 mM sodium phosphate, I=0.3 M), 25° C.) turned out to be 4.97 ± 0.05 mM; at SXA [6] (D-xylose α:β ratio of 1:2.5, pH 5.3, 25° C., competitive), 11.8 ± 0.3 mM; at SXA [6] (D-xylose α:β ratio of 6:1, pH 5.3, 25° C., competitive), 11.9 ± 0.3 mM; on SXA [7] (Ki^D-xylose, inhibition of SXA-catalyzed hydrolysis of 4NPX, Eq. 3 noncompetitive (mixed), D-xylose α:β 1:2.5), 9.63 ± 0.3 mM; at SXA [7] (Kis^D-xylose·4NPX, Eq. 3), 15.9 ± 2.1 mM; on SXA [8], 7.4 mM. In addition, the “kobs of SXA inactivation” value on SXA [4] (46.7 mM) stood at 0.0335 ± 0.0008 min⁻¹; at SXA [4] (93.5 mM), 0.0186 ± 0.0004 min⁻¹; at SXA [4] (280 mM) it was 0.00614 ± 0.00036 min⁻¹; on SXA [5] (18.7 mM), 0.0132 ± 0.0010 min⁻¹; at SXA [5] (46.7 mM), 0.00649 ± 0.00087 min⁻¹; at SXA [5] (93.5 mM), 0.00326 ± 0.00056 min⁻¹. Also, the “kobs of SXA inactivation” value at SXA [5] (280 mM) came to 0.000917 ± 0.00033 min⁻¹. Moreover, the KI (inactivation) stood at 31.7 ± 2.8 mM at SXA [4] (read-out: Ki, dissociation constant from protection against low pH inactivation, kobs fitted to equation 4) and 17.6 ± 1.8 mM on SXA [5].

The record behind these values is patent US7993884B2, “Beta-xylosidase for conversion of plant cell wall carbohydrates to simple sugars” (The United States of America as represented by the …, priority 2006, dated 2011).
